What is called Kd is the constant that tells how readily two partners part at equilibrium.

Series [1] addresses SARS-CoV-2 Spike RBD (RBD296-531) (Severe acute respiratory syndrome coronavirus 2, UniProt P0DTC2). The experiment in a line: biochemical. It is filed as binding.
The test system of series [2] is Spike RBD. It is filed as cell-based, SARS-CoV-2.
For series [3] the following is noted: cited from earlier work. The source says:
The genetic circuit is based on a split intein and σ factor to which the peptide library is fused. This could be used to screen/select libraries of linear peptides or protein domains for binding to the target. Here, we decided to use modified peptides because they have advantages as pharmaceuticals, including more compact structures that are resistant to proteolysis and permeate the mammalian cell membrane. Modified peptides have been approved for the treatment of cancer, inflammation, and infection and increasing numbers are entering all phases of clinical development for diverse indicatio ...

Where a SMILES comes first, the peptide text is derived from it.

Regarding `CC[C@H](C)[C@H](NC(=O)[C@H]1NC(=O)[C@H](C(C)C)NC(=O)[C@H]([C@@H](C)CC)NC(=O)[C@H](CCC(=O)O)NC(=O)[C@@H](NC(=O)[C@H](Cc2c[nH]c3ccccc23)NC(=O)[C@H](CCC(=O)O)NC(=O)CNC(=O)[C@H](Cc2ccc(O)cc2)NC(=O)[C@H](CCCCN)NC(=O)[C@H](CS)NC(=O)[C@@H](NC(=O)CN)C(C)C)CSC1CC(=O)O)C(=O)O` (stereo partly shown) [AMK-1057] (HELM PEPTIDE1{G.V.C.K.Y.G.E.W.C.E.I.V.[O=C(O)CC([C@H](N[*:1])C(=O)[*:2])[*:3]].I}$PEPTIDE1,PEPTIDE1,9:R3-13:R3$$$V2.0), the affinity in series [1], expressed as Kd, was 990 ± 5 nM.
Consider VCKYGEWCEIVEI [Pap2c_1], for which, in series [2], the “fluorescence output (in words)” value is listed as “strong fluorescence output” and the “specificity for Spike RBD as compared to Mdm2*” value is 14 fold.
Take Enfuvirtide: the “proteolysis (in words)” value in series [3] is “suffers from rapid proteolysis”.
